The source made the active and inactive calls. The rule behind the calls is not given here.
Assays:
[1] = target: T1, Peptidyl-prolyl cis-trans isomerase FKBP5 (Homo sapiens) (UniProt Q13451); test: Binding affinity to 15N-labeled FKBP51 (1 to 140 residues) (unknown origin) expressed in Escherichia coli OD2N assessed as induction of chemical shift perturbations at Ile87 residues by two-dimensional 1H/15N HSQC NMR spectroscopy
T1 sequence (whole entry): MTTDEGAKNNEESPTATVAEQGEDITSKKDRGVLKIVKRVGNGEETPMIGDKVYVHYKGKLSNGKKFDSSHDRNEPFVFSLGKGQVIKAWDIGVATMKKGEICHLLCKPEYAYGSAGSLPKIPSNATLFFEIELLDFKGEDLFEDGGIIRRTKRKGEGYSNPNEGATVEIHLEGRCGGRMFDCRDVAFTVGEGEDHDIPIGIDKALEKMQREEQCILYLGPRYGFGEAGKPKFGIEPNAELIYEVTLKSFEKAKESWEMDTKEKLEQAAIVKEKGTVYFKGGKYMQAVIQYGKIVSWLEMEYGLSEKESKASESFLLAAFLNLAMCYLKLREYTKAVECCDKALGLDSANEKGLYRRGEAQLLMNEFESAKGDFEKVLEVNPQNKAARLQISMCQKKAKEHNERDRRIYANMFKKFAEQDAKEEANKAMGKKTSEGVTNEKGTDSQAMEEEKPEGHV

[2] = target: T2, Peptidyl-prolyl cis-trans isomerase FKBP5 (Homo sapiens, UniProt Q13451); test: Binding affinity to 15N-labeled FKBP51 (1 to 140 residues) (unknown origin) expressed in Escherichia coli OD2N by two-dimensional 1H/15N HSQC NMR spectroscopy
T2 sequence (Q13451 whole entry): T1 sequence (whole entry)

[3] = target: T1, Peptidyl-prolyl cis-trans isomerase FKBP5 (Homo sapiens); test: Binding affinity to 15N-labeled FKBP51 (1 to 140 residues) (unknown origin) expressed in Escherichia coli OD2N assessed as induction of chemical shift perturbations at Leu81, Gly82, Gln85, Ile87, Ala89, Trp90, Asp91, Met97, and Glu110 residues by two-dimensional 1H/15N HSQC NMR spectroscopy
[4] = target: T1, Peptidyl-prolyl cis-trans isomerase FKBP5 (Homo sapiens); test: Binding affinity to 15N-labeled FKBP51 (1 to 140 residues) (unknown origin) expressed in Escherichia coli OD2N assessed as induction of chemical shift perturbations by two-dimensional 1H/15N HSQC NMR spectroscopy

Compound | Activity [1] | Kd [2] [µM] | Activity [3] | Activity [4]
c1c[nH]cn1 [IMIDAZOLE] | Active | 4400 | – | –
O=C1CCCCN1 | – | 2800 | Active | –
NC(=O)c1cccnc1 | – | – | – | inactive
Oc1ccccn1 | Active | 1300 | – | –
Cc1c[nH]cn1 | Active | 2900 | – | –
O=C1CNC(=O)N1 | – | – | – | inactive
